Data set [1] is described as follows: Biodistribution of iodorotenol and iodorotenone compounds in rats (organs and blood weighed and counted). The note with it: for uptake in the heart relative to the Z isomer: twenty microcuries into tail vein. How it is done: Evaluation of the iodorotenol and iodorotenone compounds. […] Twenty microcuries of the compound was injected into the rat tail vein. At various time points post injection (30 m, 1 h, 2 h, and 4 h) rats were euthanized and the organs and blood were weighed and counted.

A short description of data set [2]: Dual head planar whole body imaging in canines. Conditions: dogs; for heart uptake and retention (planar images): 4-6 mCi 123I compound iv in front leg vein, scans to 7 h (FIG. 17); for uptake in the thyroid: no thyroid blocking agent prior to the scan.
Protocol: Two 20-25 kg dogs were anesthetized with iv sodium pentathol and maintained on inhaled isoflurane. Four to six mCi of Z-[^123I]Iodorotenone or E-[^123I]Iodorotenone was injected in a front leg vein. Dual head planar imaging was carried out using the GE Millenium SPECT scanner with Hawkeye xray CT. The scanning protocol was serial 4 m whole body scans over the first hour, 8 m whole body scans from 1-2 h and 30 min whole body scans out to 7 h post injection of the tracer. […] No thyroid blocking agent was introduced prior to the scan.
Data set [3] concerns isolated blood perfused rabbit heart. The note with it: cited from earlier work.

Molecules are shown by their SMILES. Like-named read-outs stand apart in the source and are kept apart here.

`COc1cc2c(cc1OC)C1C(CO2)Oc2c(ccc3c2CC(C(C)=CI)O3)C1O` (stereo not drawn) [E-iodorotenol, E-7′-iodorotenol]: in data set [1], the “uptake in the heart relative to the Z isomer” value is “two-fold increase”.
With `COc1cc2c(cc1OC)[C@@H]1C(=O)c3ccc4c(c3O[C@@H]1CO2)C[C@H](/C(C)=C/I)O4` [E-iodorotenone, E-7′-iodorotenone], in data set [2], the “heart uptake and retention (planar images)” value is “greater heart uptake and retention”; the “uptake in the thyroid” value is listed as “minimal”. Besides, in data set [2] (planar imaging post injection), the “time to which the heart is clearly visible” value came to 4.5 h. In addition, in data set [1] (tail vein injection, at 1 hour), the “heart uptake, injected dose in the heart tissue” value is 6.5 % injected dose. Besides, in data set [1], the “uptake in the heart relative to the Z isomer” value is given as “nearly double”.
On to `COc1cc2c(cc1OC)[C@@H]1C(=O)c3ccc4c(c3O[C@@H]1CO2)C[C@H](/C(C)=C\I)O4` [Z-iodorotenone, Z-7′-iodorotenone], for which, in data set [2], the “heart uptake and retention (planar images)” value is “washed out of the heart faster”; the “uptake in the thyroid” value was “minimal”. The “clearance through the gallbladder and stomach” value in data set [2] (planar imaging, compared with the E isomer) is reported as “more rapidly”.
With `[C-]#[N+]CC(C)(C)OC.[C-]#[N+]CC(C)(C)OC.[C-]#[N+]CC(C)(C)OC.[C-]#[N+]CC(C)(C)OC.[C-]#[N+]CC(C)(C)OC.[C-]#[N+]CC(C)(C)OC.[Tc]` [Tc-99m sestamibi], the net heart retention in data set [3] (at 1 min) was 0.41±0.11; in data set [3] (at 26 min) it was 0.27±0.11. For the same compound, in data set [3], the extraction is recorded as 0.48±0.10.
